We go through 12 compounds from patent publication US11987600B2, “Contraceptive use of triterpenoids” (The Regents of the University of California, priority 2017, dated 2024).

Test [1] concerns human sperm. In words: Sperm hyperactivation: curvilinear velocity (VCL) of human sperm. The class given is cell-based. The note with it: for change (increase) of VCL / reduction of VCL values in comparison to VCL in the presence of P4: capacitated spermatozoa; for change (increase) of VCL: compound alone; for decrease of VCL compared to sperm treated with PregS alone: capacitated sperm; for reduction of VCL values in comparison to VCL in the presence of P4: stimulated with P4 + compound. From the text: (§1) Pristimerin and lupeol decrease sperm hyperactivation in the presence of P4. Hyperactivated sperm motility is characterized by a highly asymmetrical bending of the sperm tail due to a CatSper-mediated rise in flagellar calcium concentration (15). Curvilinear velocity (VCL) is the average velocity of the sperm head through the sperm trajectory, which increases during capacitation. A CatSper-mediated calcium rise promotes hyperactivation and makes the sperm trajectory less linear, which results in an increase of VCL. Capacitation increases CatSper activity, which results in a higher percentage of sperm with hyperactivated motility. Thus, capacitated spermatozoa tend to have higher VCL values than non-capacitated. Since both P4 and PregS activate CatSper, while pristimerin and lupeol inhibit it, we explored whether VCL values of human sperm are affected in the presence of plant triterpenoids or steroid hormones. As expected, neither of the compounds changed VCL values of non-capacitated sperm cells. […] Stimulating capacitated sperm with PregS in combination with pristimerin or lupeol decreased VCL by 18% and 9%, respectively, compared to sperm, which were treated with PregS alone. […] Since CatSper is not only required for hyperactivation but also for basal motility, we sought to determine whether pristimerin and lupeol also affect sperm motility.

Test [2] deals with CatSper. As to the kind of experiment: Activity of steroids and modified steroids on CatSper activation (method not described). The class given is cell-based, human. Particulars: for activity relative to progesterone: effect of position 11 versus position 3 modification; for effect on CatSper activation: competing with progesterone.
Test [3] concerns rats. Particulars: orally administered to rats; cited from earlier work.
For test [4], the system named is human sperm. In words: Sperm motility: number/percentage of motile spermatozoa. The format is cell-based. Particulars: for decrease of percentage of motile sperm: capacitated sperm.
Text: as §1

For test [5], the system named is CatSper. In words: Electrophysiology recordings of inward monovalent currents through CatSper (ICatSper) of human sperm. The class given is cell-based. The note with it: for reduction of ICatSper stimulation compared to stimulation with P4 alone: co-application with P4, human spermatozoa; for reduction of ICatSper stimulation compared to stimulation with PregS alone: co-application with PregS. An excerpt:
2-AG hydrolysis by monoacyl lipases, such as ABHD2, is required for CatSper activation. The plant triterpenoid pristimerin was reported to inhibit the activity of related monoacylglycerol lipase (MAGL) (9). […] To test this hypothesis, human spermatozoa were stimulated with pristimerin, followed by exposure to either a mixture of pristimerin and P4, or to a mixture of pristimerin and PregS. In these experiments we analyzed inward monovalent currents through CatSper (ICatSper) of human sperm. Electrophysiology recordings were performed as described in (14). […] Compared to stimulation with P4 or PregS alone, the ICatSper stimulation was reduced by 63% (pristimerin and P4) and by 48% (pristimerin and PregS) (7).
Another pharmacologically active plant triterpenoid, which affects sperm functions when orally administered to rats, is lupeol (8). Lupeol is similar in structure to steroid hormones. […] However, administration of lupeol with P4 or PregS led to an even stronger inhibition of ICatSper than pristimerin. Compared to CatSper stimulation elicited by P4 or PregS alone, CatSper currents were reduced by 71% and 68%, respectively, in combination with P4 or PregS (7).

Setting [6] is: PregS in combination with compound.

For `CC(=O)[C@H]1CC[C@H]2[C@@H]3CCC4=CC(=O)CC[C@]4(C)[C@H]3CC[C@]12C` [P4, progesterone, reference compound], in test [1], the “change (increase) of VCL” value is given as 12%.

As for `CC#C[C@]1(O)CC[C@H]2[C@@H]3CCC4=CC(=O)CCC4=C3[C@@H](c3ccc(N(C)C)cc3)C[C@@]21C` [RU-486, mifepristione], in test [2], the “activity relative to progesterone” value is “inactive”.

With `C[C@]12CCC(=O)C=C1CC[C@@H]1[C@@H]2[C@@H](O)C[C@@]2(C)[C@H]1CC[C@]2(O)C(=O)CO` [cortisol], the “effect on CatSper activation” value in test [2] was “impair CatSper activation”.

In the case of `C=C(C)[C@@H]1CC[C@]2(C)CC[C@]3(C)[C@H](CC[C@@H]4[C@@]5(C)CC[C@H](O)C(C)(C)[C@@H]5CC[C@]43C)[C@@H]12` [lupeol], the antifertility properties result in test [3] was “antifertility properties”. The “decrease of VCL compared to sperm treated with PregS alone” value in test [1] (setting [6]) amounted to 9%. In addition, in test [1], the “change (increase) of VCL” value is recorded as “remained unchanged” and the “reduction of VCL values in comparison to VCL in the presence of P4” value is listed as 48%. Further, the “change of VCL values” in test [1] (non-capacitated sperm, PregS in combination with compound) was “remained unchanged”. Besides, the “change in number of motile spermatozoa” value in test [4] (capacitated and non-capacitated, compound alone) is on record as “remained unchanged”. The “reduction of motile sperm” value in test [4] (capacitated or non-capacitated sperm, co-stimulation with PregS) is “did not result in a significant reduction”. The “decrease of percentage of motile sperm” value in test [4] (P4 co-applied with compound) turned out to be 19%. Besides, the “change of percentage of motile sperm” value in test [4] (non-capacitated cells, P4 co-applied with compound) is given as “did not change”. Moreover, the “reduction of ICatSper stimulation compared to stimulation with P4 alone” value in test [5] was determined as 71%. In test [5] (human spermatozoa), the “reduction of ICatSper stimulation compared to stimulation with PregS alone” value is 68%. For the same compound, the “effect on basal ICatSper” value in test [5] (compound alone, human spermatozoa) is recorded as “did not affect basal ICatSper”.

As for `COC(=O)[C@]1(C)CC[C@]2(C)CC[C@]3(C)C4=CC=C5C(=CC(=O)C(O)=C5C)[C@]4(C)CC[C@@]3(C)[C@@H]2C1` [pristimerin], the “decrease of VCL compared to sperm treated with PregS alone” value in test [1] (setting [6]) was 18%. Also, the “reduction of VCL values in comparison to VCL in the presence of P4” value in test [1] was determined as 39%. Besides, the “decrease of percentage of motile sperm” value in test [4] (P4 co-applied with compound) was found to be 19%. Further, the “reduction of ICatSper stimulation compared to stimulation with P4 alone” value in test [5] amounted to 63%. The “reduction of ICatSper stimulation compared to stimulation with PregS alone” value in test [5] (human spermatozoa) is 48%.

Turning to `C[C@]12CC[C@H]3[C@@H](CCC4=CC(=O)CC[C@@]43C)[C@@H]1CC[C@@H]2O` [testosterone], the “effect on CatSper activation” value in test [2] is “impair CatSper activation”.

Regarding estrogen, the “effect on CatSper activation” value in test [2] was “impair CatSper activation”.

For “pregnenolone sulfate [PregS, reference compound]”, the “change (increase) of VCL” value in test [1] is recorded as “remained unchanged”.

As to progesterone-3-BSA, in test [2], the “activity relative to progesterone” value is recorded as “as active as progesterone”.

For progesterone-3-biotin, in test [2], the “activity relative to progesterone” value is “as active as progesterone”.

Regarding progesterone-11-BSA, the “activity relative to progesterone” value in test [2] was “inactive”.

Consider progesterone-11-biotin, for which the “activity relative to progesterone” value in test [2] is “inactive”.
